Measurements reported in patent US8580842B2, “Heteroaryl-substituted 1,3-dihydroindol-2-one derivatives and medicaments containing them” (Abbott GmbH & Co. KG, priority 2003, dated 2013).
Structures can show the parent of a compound that is named as a salt.

The compounds below were run against T1, human V1b receptors (Homo sapiens, UniProt P47901) (assay: Vasopressin V1b receptor binding assay). Settings: membranes from CHO-K1 cells expressing human V1b receptors, displacement of 1.5 nM 3H-AVP; read-out: Binding affinity for the vasopressin V1b receptor.
T1 construct: expressed in transfected cells; host or cells: CHO-K1 (membrane preparation V1b-3H2)
T1 sequence (P47901 1-424): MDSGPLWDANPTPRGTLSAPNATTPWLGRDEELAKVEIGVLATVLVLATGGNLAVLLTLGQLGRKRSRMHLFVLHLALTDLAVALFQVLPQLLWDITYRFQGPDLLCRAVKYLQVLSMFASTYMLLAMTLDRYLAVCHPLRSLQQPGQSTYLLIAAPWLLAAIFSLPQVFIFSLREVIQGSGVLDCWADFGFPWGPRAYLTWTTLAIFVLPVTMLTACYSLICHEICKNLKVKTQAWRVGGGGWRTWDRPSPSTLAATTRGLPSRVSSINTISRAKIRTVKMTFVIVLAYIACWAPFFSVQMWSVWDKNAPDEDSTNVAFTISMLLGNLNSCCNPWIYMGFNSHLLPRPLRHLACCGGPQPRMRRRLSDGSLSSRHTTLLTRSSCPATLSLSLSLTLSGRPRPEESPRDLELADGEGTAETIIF
In short: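 Membranes from CHO-K1 cells stably expressing human V1b incubated with 1.5 nM ³H-AVP and test compound in 50 mM Tris, 10 mM MgCl2, 0.1% BSA, pH 7.4, 60 min at room temperature; non-specific binding with 10^−6 M AVP. Filtration and scintillation counting in triplicate; binding parameters by non-linear regression.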

Compound	Ki [nM]
COc1ncccc1C1(OC(=O)N2CCN(C3CCN(C)CC3)CC2)C(=O)N(S(=O)(=O)c2cc(C)sc2C)c2ccc(Cl)cc21 (stereo not shown) [Example 169, 4-(1-Methyl-piperidin-4-yl)-piperazine-1-carboxylic acid 5-chloro-1-(2,5-dimethyl-thiophene-3-sulfonyl)-3-(2-methoxy-pyridin-3-yl)-2-oxo-2,3-dihydro-1H-indol-3-yl ester diacetate]	50 to 500
COc1ncccc1C1(OC(=O)N2CCN(C3CCN(C)CC3)CC2)C(=O)N(S(=O)(=O)c2ccc(OC(F)(F)F)cc2)c2ccc(Cl)cc21 (stereo not shown) [Example 123, 4-(1-Methyl-piperidin-4-yl)-piperazine-1-carboxylic acid 5-chloro-3-(2-methoxy-pyridin-3-yl)-2-oxo-1-(4-trifluoromethoxy-benzenesulfonyl)-2,3-dihydro-1H-indol-3-yl ester diacetate]	50 to 500
COc1ncccc1C1(OC(=O)N2CCN(C3CCN(C)CC3)CC2)C(=O)N(S(=O)(=O)c2cn(C)c(C)n2)c2ccc(Cl)cc21 (stereo not shown) [Example 166, 4-(1-Methyl-piperidin-4-yl)-piperazine-1-carboxylic acid 5-chloro-1-(1,2-dimethyl-1H-imidazole-4-sulfonyl)-3-(2-methoxy-pyridin-3-yl)-2-oxo-2,3-dihydro-1H-indol-3-yl ester diacetate]	50 to 500
COc1ncccc1C1(OC(=O)N2CCN(C3CCN(C)CC3)CC2)C(=O)N(S(=O)(=O)c2cn(C)cn2)c2ccc(Cl)cc21 (stereo not shown) [Example 165, 4-(1-Methyl-piperidin-4-yl)-piperazine-1-carboxylic acid 5-chloro-3-(2-methoxy-pyridin-3-yl)-1-(1-methyl-1H-imidazole-4-sulfonyl)-2-oxo-2,3-dihydro-1H-indol-3-yl ester diacetate]	50 to 500
COc1ccccc1C1(N2C[C@H](O)C[C@H]2C(=O)N(C)C)C(=O)N(S(=O)(=O)c2cc(Br)c(Cl)s2)c2ccc(Cl)cc21 (stereo partly drawn) [Example 33, (2S,4R)-1-[1-(4-Bromo-5-chloro-thiophene-2-sulfonyl)-5-chloro-3-(2-methoxy-phenyl)-2-oxo-2,3-dihydro-1H-indol-3-yl]-4-hydroxy-pyrrolidine-2-carboxylic acid dimethylamide trifluoroacetate]	50 to 500
CCOc1ccccc1C1(OC(=O)N2CCN(C3CCN(C)CC3)CC2)C(=O)N(S(=O)(=O)c2cccc3cccnc23)c2ccc(C#N)cc21 (stereo not shown) [Example 158, 4-(1-Methyl-piperidin-4-yl)-piperazine-1-carboxylic acid 5-cyano-3-(2-ethoxy-phenyl)-2-oxo-1-(quinoline-8-sulfonyl)-2,3-dihydro-1H-indol-3-yl ester]	< 50

More lines, now with the values ahead:

Ki [nM]	Compound
< 50	COc1ccc(C2(N3C[C@H](O)C[C@H]3C(=O)N(C)C)C(=O)N(S(=O)(=O)c3cccs3)c3ccc(Cl)cc32)c(OC)n1 (single isomer, unassigned) [Example 280]
< 50	COc1ccccc1C1(N2C[C@H](O)C[C@H]2C(=O)N(C)C)C(=O)N(S(=O)(=O)c2cccs2)c2ccc(Cl)cc21 (single isomer, unassigned) [Example 29]
< 50	COc1ccc(S(=O)(=O)N2C(=O)C(c3nccnc3OC)(N3C[C@H](O)C[C@H]3C(=O)N(C)C)c3cc(Cl)ccc32)c(OC)c1 (single isomer, unassigned) [Example 13]
< 50	COc1ccccc1C1(N2C[C@H](O)C[C@H]2C(=O)N(C)C)C(=O)N(S(=O)(=O)c2ccccn2)c2ccc(Cl)cc21 (single isomer, unassigned) [Example 47]
50 to 500	COc1ccccc1C1(OC(=O)N2CCCCC2)C(=O)N(S(=O)(=O)c2cccc3cccnc23)c2ccc(Cl)cc21 (stereo not shown) [Example 65, Piperidine-1-carboxylic acid 5-chloro-3-(2-methoxy-phenyl)-2-oxo-1-(quinoline-8-sulfonyl)-2,3-dihydro-1H-indol-3-yl ester]
50 to 500	COc1ccsc1S(=O)(=O)N1C(=O)C(c2cccnc2OC)(N2C[C@H](O)C[C@H]2C(=O)N(C)C)c2cc(OC(F)(F)F)ccc21 (single isomer, unassigned) [Example 286]
> 500	COc1ccccc1C1(N2C[C@H](O)C[C@H]2C(=O)N(C)C)C(=O)N(S(=O)(=O)c2cnc(Cl)c(Br)c2)c2ccc(Cl)cc21 (stereo partly drawn) [Example 59, (2S,4R)-1-[5-Chloro-1-(5-bromo-6-chloropyridine-3-sulfonyl)-3-(2-methoxy-phenyl)-2-oxo-2,3-dihydro-1H-indol-3-yl]-4-hydroxy-pyrrolidine-2-carboxylic acid dimethylamide]
< 50	COc1ccc(S(=O)(=O)N2C(=O)C(c3cccnc3OC)(N(C)[C@@H](C)C(=O)N(C)C)c3cc(Cl)ccc32)c(OC)c1 (stereo partly shown) [Example 220]
< 50	COc1ccc(S(=O)(=O)N2C(=O)C(c3cccnc3OC)(N3C[C@H](O)C[C@H]3C(=O)N(C)C)c3cc(OC(F)(F)F)ccc32)c(OC)c1 (single isomer, unassigned) [Example 245]
< 50	COc1ccc(S(=O)(=O)N2C(=O)C(c3cccnc3OC)(N3C[C@H](O)C[C@H]3C(=O)N(C)C)c3cc(Cl)ccc32)c(OC)c1 (single isomer, unassigned) [Example 5]

What follows are compounds tested on Male Sprague Dawley rats (assay: Rat forced swim test). Settings: ip; rat forced swim model, intraperitoneal route, three times before re-testing; read-out: ED50 (decrease of immobility time).
Type: in vivo
Text: Antidepressant Effects of Compounds of this Invention in the Rat Forced Swim Model
The potential antidepressant effects of some examples of this invention were examined in the rat forced swim test. When rats are forced to swim in a cylinder from which no escape is possible they readily adopt a characteristic immobile posture and make no further attempts to escape except for small movements needed to keep floating. The immobility is considered to reflect a ‘depressive mood’ (Porsolt R D, LePichon M, Jalfre M (1977). Depression: a new animal model sensitive to antidepressant treatment. Nature 266, 730-732.), in which animals cease to struggle to escape the aversive situation. The immobility induced by the procedure is influenced by a wide variety of antidepressants (Porsolt R D, Lenegre A, McArthur R A (1991). Pharmacological models of depression. In: Animal models in Psychopharmacology. B. Olivier, J. Mos, J. L. Slangen (eds) Birkhauser Verlag, Basel, pp. 137-159.) and has a good predictive validity in that it detects antidepressants with different mechanisms of action. Administration of antidepressants such as fluoxetine increases the time an animal struggles (decreases the immobility time) when forced to swim in a confined space. Lack of struggling is thought to represent a state of despair.
Procedure: Male Sprague Dawley rats (Janvier) weighing 160-200 gram (n=6) were placed individually into a glass water tank (40 cm×21.5 cm) filled with tap water (25° C.) up to 18 cm. This pre-test lasted for 15 min. Twenty-four hours later, animals were re-tested for 5 min in the same water tank while the total immobility time, swimming time and climbing time were recorded. Rats were considered immobile when they made no further attempts to escape, except for movements necessary to keep their heads above water (Porsolt R D, Anton G, Blavet N & Jalfre M. (1978). Behavioural despair in rats: a new model sensitive to antidepressant treatments. European Journal of Pharmacology 47, 379-391). The absence of hind limb movements was recorded as immobility using a stopwatch by a single observer. […]

Compound	ED50 [mg/kg]
COc1ccc(S(=O)(=O)N2C(=O)[C@@](c3ccccc3OC)(N3C[C@H](O)C[C@H]3C(=O)N(C)C)c3cc(Cl)ccc32)c(OC)c1 [SSR149415, reference compound]	> 30
COc1ccccc1C1(N2C[C@H](O)C[C@H]2C(=O)N(C)C)C(=O)N(S(=O)(=O)c2cccs2)c2ccc(Cl)cc21 (single isomer, unassigned) [Example 29]	< 30
COc1ccc(S(=O)(=O)N2C(=O)C(c3cccnc3OC)(N3C[C@H](O)C[C@H]3C(=O)N(C)C)c3cc(Cl)ccc32)c(OC)c1 (single isomer, unassigned) [Example 5]	< 30
